According to patent US11254652B2, “Crystalline forms of N-(4-(4-(cyclopropymethyl)piperazine-1-carbonyl)phenyl)quinoline-8-sulfonamide” (Agios Pharmaceuticals, Inc., priority 2017, dated 2022):
In brackets after ≈: the same amount, converted by molar mass. Counter-ions that a name gives are not always drawn. Like-named read-outs stand apart in the source and are kept apart here.

What was measured:
[1] = Solubility measurements by gravimetric method in solvents at 23° C. and 50° C.; type: physicochemical; settings: non-crystalline freebase; for solubility at 2 days: organic solvent or mixture, thermodynamic from solid, read-out: Solubility
Method: Solubility measurements were done by gravimetric method in 20 different solvents at two temperatures (23° C. and 50° C.). About 20-30 mg of Form A, the synthesis of which is described below, was weighed and 0.75 mL solvent was added to form a slurry. The slurry was then stirred for two days at the specified temperature. The vial was centrifuged and the supernatant was collected for solubility measurement through gravimetric method. The saturated supernatant was transferred into pre-weighed 2 mL HPLC vials and weighed again (vial+liquid). The uncapped vial was then left on a 50° C. hot plate to slowly evaporate the solvent overnight. The vials were then left in the oven at 50° C. and under vacuum to remove the residual solvent so that only the dissolved solid remained. The vial was then weighed (vial+solid). From these three weights; vial, vial+liquid and vial+solid; the weight of dissolved solid and the solvent were calculated. Then using solvent density the solubility was calculated as mg solid/mL of solvent.
20-30 mg of Form A was weighed into 2 mL vial and 500 μL MeOH solvent system as outlined in the table was added. If dissolved, more solids were added to form the slurry. The slurries were then stirred for two days. The vials were centrifuged and the supernatant was collected for solubility measurement through gravimetric method by evaporation at 50° C. XRPD analysis was conducted on the solid after filtration of the slurries.
For the sake of comparison, the solubility of Compound 1, i.e., the non-crystalline freebase, was also measured in two solvent systems to see the effect of water.

[2] = Solubility in phosphate buffer pH7.4; type: physicochemical
[3] = Pharmacokinetic evaluation after single PO suspension dose; type: in vivo, Sprague-Dawley rat; settings: for AUC 0-last / Cmax: PO 200 mg/kg (free base equivalent), suspension in 0.5% methyl-cellulose, male Sprague-Dawley rats, n=6, plasma, 200 mg/kg; for AUC fold higher compared to crystalline free-base of Compound 1 / Cmax fold higher compared to crystalline free-base of Compound 1: PO suspension 200 mg/kg, fasted male Sprague-Dawley rats
Method: Single dose in suspension using Crystalline Form A micronized and unmicronized, and crystalline free base of Compound 1 were administered to male Sprague-Dawley rat at 200 mg/kg. Blood samples were collected in the presence of K2EDTA, and were centrifuged to obtain plasma. The plasma was then analyzed for these compounds by LC/MS.
All animals involved in the dosing schedule were weighted and assigned numbers. All suspension formulations were freshly made prior use. Each solution was prepared at 40 mg/mL in 0.5% methyl-cellulose solution in water. The tubes were vortex for 2 min and sonicate for 30 min to achieve a white homogenous suspension.
All animals (n=6/group) were dosed orally in a volume of 5 mL/kg. Following dosing, each rat was bled at each of the designated time points. Blood samples were collected from the tail vain. Blood aliquots (150 μl) were collected in tubes coated with K2EDTA, mixed gently then kept on ice and centrifuged at 2,000 g for 5 minutes at 4° C., within 15 min of collection. The plasma layer was collected and maintained frozen at −70° C. until further processing.
Bioanalytical quantitation using HPLC/triple quadruple mass spectrometry (HPLC-MS) was performed. Plasma concentrations and T½ were calculated and reported.
A 1 mg/mL standard solution in DMSO:methanol (20:80, v/v) was diluted in 50 fold and subsequently serial diluted in 50% methanol water. Aliquots (10 μl) of the serial dilutions were mixed with 190 ul of control plasma for use as a standard curve. Plasma samples (50 μl) and standard samples (non-diluted) were diluted 10× with ice cold acetonitrile containing 40 ng/ml dexamethasone as internal standard. Acetonitrile precipitated samples and standards were vortexed at 5 g for 2 min (IKA vortex), then centrifuged at 5000 g for 10 min.
For 10-fold dilution standard samples: an aliquot of 5 μL sample was added with 45 μL control plasma to obtain the diluted samples. If a 50-fold dilution standard sample was required: an aliquot of 10 μL 10-fold diluted sample was added with 40 μL blank plasma to obtain the final diluted samples. Then, the exaction procedure for diluted samples was same as those for non-diluted samples.
Samples and standards (10 μl) were injected into the LC-MS system, as described below. Concentrations of dose solutions were reported in mg/mL.
LC: 7.5 μl of each sample and standard were injected onto a Waters BEH C18 (2.1×50 mm, 1.7 μm, maintained at 60° C.) column at 0.6 mL/min by an UPLC. The column was equilibrated at 10% acetonitrile. Compounds were eluted with a gradient to 95% acetonitrile. All mobile phase contained 0.025% (v/v) formic acid with 1 mM ammonium acetate.
MS: Column eluent was analyzed by electrospray ionization into a triple quadruple mass spectrometer system. Eluent composition was analyzed for ion pair specifics to the internal standard and the analyte respectively.
Experimental samples were compared with standard curve samples to determine compound concentrations. Average compound concentrations (in ng/mL±standard deviation) were reported for each time-point. […] PK analysis was performed in Phoenix Winnonlin; Cmax were determined as the maximum average concentration observed at a given point, the area under the curve (AUC) was reported for t0 to tlast ours.

[4] = Solubility in water and simulated fluids at 37° C. (slurry, HPLC; XRPD of residual solid); type: physicochemical; settings: values based on hemi-sulfate sesqui-hydrate salt, hemisulfate salt
Method: Solubility of Patterns A, B and D were measured in water. The solids were slurried in the fluids for two days and at 37° C. The supernatant was syringe filtered and used for HPLC analysis. For Patterns A and D the solubility measurement was repeated and the sample was taken after 1 hr slurry. A calibration curve was developed using Pattern A. This was not assay corrected and therefore the solubility values are based on the hemi-sulfate, sesqui-hydrate salt.
Both Patterns B and D converted to Pattern A after two days slurry. Pattern D also converted to Pattern A within 1 hour slurry in Fasted state simulated gastric fluid (FaSSGF) or water. […] This could be because of the conversion of Patterns B and D to Pattern A. The solubility data and the resulting XRPD Pattern after the measurement are reported in Table 21.

[5] = Dynamic Vapor Sorption (DVS); type: physicochemical; settings: hemisulfate salt; for moisture picked up in DVS: 2% to 95% relative humidity, temperature not stated; for XRPD after DVS: Form A: DVS at 25° C. and 40° C.
Method: Dynamic Vapor Sorption (DVS) was done using a DVS Intrinsic 1. The sample is loaded into a sample pan and suspended from a microbalance. A typical sample mass for DVS measurement is 25 mg. Nitrogen gas bubbled through distilled water provides the desired relative humidity. A typical measurement comprises the steps: • 1. Equilibrate at 50% RH • 2. 50% to 2%. (50%, 40%, 30%, 20%, 10% and 2%) • a. Hold minimum of 5 mins and maximum of 60 minutes at each humidity. The pass criteria is less than 0.002% change • 3. 2% to 95% (2%, 10%, 20%, 30%, 40%, 50%, 60%, 70%, 80%, 90%, 95%) • b. Hold minimum of 5 mins and maximum of 60 minutes at each humidity. The pass criteria is less than 0.002% change • 4. 95% to 2% (95%, 80%, 70%, 60%, 50%, 40%, 30%, 20%, 10%, 2%) • c. Hold minimum of 5 mins and maximum of 60 minutes at each humidity. The pass criteria is less than 0.002% change • 5. 2% to 50% (2%, 10%, 20%, 30%, 40%, 50%) • d. Hold minimum of 5 mins and maximum of 60 minutes at each humidity. The pass criteria is less than 0.002% change
(§1) The water content by Karl Fisher was about 5.3%. […] A DVS isotherm taken at 40° C. was essentially the same as the one at 25° C. […] Humidity test was conducted on Form A with exposure to 11%, 48%, and 75% relative humidity at 40° C. for 2 weeks followed by XRPD analysis. […] Crystallographic data for Form A is as follows:
Form B tends to hold substantial amount of solvent.
(§2) Form D was determined to be anhydrous with a melting peak at 239° C. See e.g., FIG. 9. DVS of Pattern D was performed and solid picked up about 2% moisture from 2% to 95% relative humidity.

[6] = Humidity / desiccant exposure test followed by XRPD analysis; type: physicochemical; settings: one week exposure to 75% relative humidity at 40° C.
Method: FIG. 5 (i) depicts X-ray powder diffraction pattern (XRPD) overlay for crystalline hemisulfate salt Form A and after exposure to 11%, 48%, and 75% relative humidity and 40° C. for two weeks. […] FIG. 5 (ii) depicts XRPD overlay for crystalline hemisulfate salt Form A and after exposure to phosphorus pentoxide (P2O5) granules at room temperature and 50° C. for one week, as well as ambient temperature in a vial for 24 hrs.
as §1, §2

O=C(c1ccc(NS(=O)(=O)c2cccc3cccnc23)cc1)N1CCN(CC2CC2)CC1 [Compound 1, N-(4-(4-(cyclopropylmethyl)piperazine-1-carbonyl)phenyl)quinoline-8-sulfonamide] showed a solubility at 2 days ([1]; MeOAc:MeOH (1:1) and 2.5 vol % water, 23 °C, MeOAc:MeOH (1:1) and 2.5 vol % water, 23° C.) of 15 mg/mL (≈ 33.3 mM), a solubility at 2 days ([1]; MeOAc:MeOH (1:1) and 2.5 vol % water, 50 °C, MeOAc:MeOH (1:1) and 2.5 vol % water, 50° C.) of 36 mg/mL (≈ 79.9 mM) and a solubility at 2 days ([1]; MeOAc:MeOH (1:1), 23 °C, MeOAc:MeOH (1:1), 23° C.) of 15 mg/mL (≈ 33.3 mM). The solubility at 2 days ([1]; MeOAc:MeOH (1:1), 50 °C, MeOAc:MeOH (1:1), 50° C.) was 34 mg/mL (≈ 75.5 mM) and the “impact of 2.5 vol % water on solubility” value ([1]; MeOAc:MeOH (1:1)) was “did not have any impact”.

For O=C(c1ccc(NS(=O)(=O)c2cccc3cccnc23)cc1)N1CCN(CC2CC2)CC1 [Crystalline Form A (micronized), 1-(cyclopropylmethyl)-4-(4-(quinoline-8-sulfonamido)benzoyl)piperazin-1-ium hemisulfate sesquihydrate], the “solubility compared to crystalline free-base of Compound 1” value [2] was “more soluble”, the AUC 0-last ([3]; hemisulfate sesquihydrate) was 478 ± 87.9 µg·h/mL and the Cmax ([3]; hemisulfate sesquihydrate) was 36700 ± 6800 ng/mL. The “AUC fold higher compared to crystalline free-base of Compound 1” value ([3]; hemisulfate sesquihydrate) was 3.8 fold and the “Cmax fold higher compared to crystalline free-base of Compound 1” value ([3]; hemisulfate sesquihydrate) was 2 fold.

For O=C(c1ccc(NS(=O)(=O)c2cccc3cccnc23)cc1)N1CCN(CC2CC2)CC1 [Crystalline Form A (unmicronized), 1-(cyclopropylmethyl)-4-(4-(quinoline-8-sulfonamido)benzoyl)piperazin-1-ium hemisulfate sesquihydrate], the “solubility compared to crystalline free-base of Compound 1” value [2] was “more soluble”, the AUC 0-last ([3]; hemisulfate sesquihydrate) was 356 ± 82.9 µg·h/mL and the Cmax ([3]; hemisulfate sesquihydrate) was 29800 ± 5300 ng/mL. The “AUC fold higher compared to crystalline free-base of Compound 1” value ([3]; hemisulfate sesquihydrate) was 2.7 fold and the “Cmax fold higher compared to crystalline free-base of Compound 1” value ([3]; hemisulfate sesquihydrate) was 1.6 fold.

Work on O=C(c1ccc(NS(=O)(=O)c2cccc3cccnc23)cc1)N1CCN(CC2CC2)CC1 [Crystalline free-base of Compound 1, N-(4-(4-(cyclopropylmethyl)piperazine-1-carbonyl)phenyl)quinoline-8-sulfonamide] yielded an AUC 0-last [3] of 125 ± 85.8 µg·h/mL and a Cmax [3] of 17900 ± 3600 ng/mL.

With O=C(c1ccc(NS(=O)(=O)c2cccc3cccnc23)cc1)N1CCN(CC2CC2)CC1 [Form B, N-(4-(4-(cyclopropylmethyl)piperazine-1-carbonyl)phenyl)quinoline-8-sulfonamide hemisulfate salt] the Solubility ([4]; FaSSGF, slurry time 2 days, listed as B) was 6.53 mg Solid/mL solvent, the Solubility ([4]; FaSSIF, slurry time 2 days, listed as B) was 0.20 mg Solid/mL solvent and the Solubility ([4]; Water, slurry time 2 days, listed as B) was 3.02 mg Solid/mL solvent. The “moisture picked up in DVS” value [5] was “about 14%” and the “XRPD after DVS” value [5] was “converted to a different Form K”.

With O=C(c1ccc(NS(=O)(=O)c2cccc3cccnc23)cc1)N1CCN(CC2CC2)CC1 [Form D, N-(4-(4-(cyclopropylmethyl)piperazine-1-carbonyl)phenyl)quinoline-8-sulfonamide hemisulfate salt] the “form after humidity exposure” value [6] was “did not change the form”, the Solubility ([4]; FaSSGF, slurry time 1 hr) was 5.43 mg Solid/mL solvent and the Solubility ([4]; FaSSGF, slurry time 2 days, listed as D) was 5.94 mg Solid/mL solvent. The Solubility ([4]; FaSSIF, slurry time 2 days, listed as D) was 3.49 mg Solid/mL solvent, the Solubility ([4]; Water, slurry time 1 hr) was 2.62 mg Solid/mL solvent and the Solubility ([4]; Water, slurry time 2 days, listed as D) was 2.71 mg Solid/mL solvent. For the same compound, the “moisture picked up in DVS” value ([5]; listed as Pattern D) was “about 2%” and the “XRPD after DVS” value ([5]; listed as Pattern D) was “remained unchanged”.
